The results in this text go back to PubChem BioAssay (NCI).

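Where inhibition never reached the appropriate level, the endpoint shown equals the highest concentration tested. Otherwise, values were interpolated linearly from a five-concentration, 48-hour dose response in 96-well plates. GI50 = concentration required for 50% inhibition of growth. TGI is the concentration that stops growth completely.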

What all share (test): NCI anticancer screen, dose series, 48 h
Test [1] relates to SN12C renal.
Test [2] relates to OVCAR-4 ovarian.
The subject of test [3] is HOP-92 NSCLC.
In test [4] the test system is U251 CNS.
Test [5] has as its system ACHN renal.
Test [6] has as its system OVCAR-8 ovarian.
In test [7] the test system is NCI-H23 lung.
For test [8], the system named is SW-620 colon.
In test [9] the test system is SK-MEL-5 melanoma.
Test [10] has as its system DU-145 prostate.

`CO/C=C(\Br)c1ccc2c(c1)OCO2`: the TGI in test [1], in test [2], in test [3], in test [4], in test [5] and in test [6] was above 100 µM each time. Further, the TGI in test [7] and in test [8] was above 100 µM throughout.
`C[C@]12CCc3nonc3C1CC[C@@H]1C2CC[C@@]2(C)C1CC[C@@H]2O` (stereo partly drawn): the TGI in test [9], in [1], in test [2], in [3], in test [4] and in [5] was above 100 µM throughout. Moreover, the TGI in [6], in [7] and in test [8] was above 100 µM in each case.
Turning to `Cc1nc2ccccc2c(/C=C/c2ccccc2)c1C(=O)/C=C/c1ccc(C(F)(F)F)cc1`, the GI50 in [9] is 1.73 µM; in test [1], 1.73 µM; in test [2], 1.65 µM; in test [4], 1.4 µM; in [5] it was 1.44 µM; in test [6], 1.78 µM. The GI50 in test [7] is 1.25 µM; in [8], 1.02 µM. For the same molecule, the TGI in test [9] turned out to be 3.13 µM; in test [1] it was 4.16 µM; in test [2], 3.2 µM; in test [4] it was 2.95 µM; in test [5], 2.75 µM; in [6], 7.98 µM. Also, the TGI was 3.11 µM in [7] and 3.49 µM in test [8].
Turning to `COc1ccc2c(c1)C(=O)c1c-2c(N2CCN(C(=O)CCNCCNCCN)CC2)nc2ccccc12`, the GI50 in test [9] was 17.6 µM; in test [1] it was 12.2 µM; in [2], 20.4 µM; in test [3], 2.44 µM; in test [6], 19.9 µM; in test [8] it was 1.86 µM. Moreover, the TGI in test [9] was 36.6 µM; in test [1], 38.6 µM; in [2], 38.3 µM; in test [3], 10.6 µM; in [6], 72.2 µM; in test [8], 3.65 µM.
As for `CCCCCCCC(=O)OCC1OC(n2cc(F)c(=O)[nH]c2=O)C(N)C(O)C1O` (stereo not drawn), the TGI in test [9], in [1], in test [2], in test [3], in test [4] and in [5] was above 100 µM each time. For the same molecule, the TGI in test [6], in test [7] and in test [8] was above 100 µM in each case.
Turning to `N#CC1(N2CCCC2)CCC2(CC1)OCCO2`, the TGI in [9], in test [1], in [2], in [3], in test [4] and in test [5] was above 100 µM each time. Also, the TGI in test [6], in [7] and in test [8] was above 100 µM throughout.
Regarding `C=CCOc1ccc(N)c([N+](=O)[O-])c1`, the TGI in test [9], in [1], in test [4], in test [5], in [6] and in test [10] was above 100 µM in each case. Also, the TGI in test [7] and in test [8] was above 100 µM each time.
In the case of `CC(=O)[CH-]C(C)=O.CC(=O)[CH-]C(C)=O.[Cl-].[O]=[V]`, the GI50 in test [9] is 28.4 µM; in test [1] it was 58.1 µM; in test [4], 22.5 µM; in test [6], 46.4 µM; in test [7], 14.2 µM; in test [8], 38.9 µM. The TGI is 70.6 µM in test [9]; above 100 µM in test [1]; 59 µM in [4]; above 100 µM in [6]; 34.5 µM in test [7]; above 100 µM in test [8].
As to `COc1cc2c(c(OC)c1OC)-c1c(c3ccc([N+](=O)[O-])cc3c(=O)n1CCCBr)C2=O`, the GI50 in test [9] was 19.8 µM; in test [1], 19.7 µM; in [4], 24.4 µM; in test [6], 49.8 µM; in test [7], 68.9 µM; in test [8] it was 18.2 µM. Further, the TGI is 65.8 µM in test [9]; above 100 µM in [1]; above 100 µM in [4]; above 100 µM in [6]; above 100 µM in test [7]; above 100 µM in test [8].
For the molecule `CCOC(=O)CNC(=O)OCc1ccccc1`, the TGI in test [1], in test [3], in [4], in test [5], in test [6] and in [7] was above 100 µM throughout. The TGI in [8] is above 100 µM.
With `COc1cc(/C=C2\NC(=O)C3Cc4c(OC)c(C)c(OC)c(OC)c4C2N3C)c(OC)c(C)c1OC` (stereo not drawn), the TGI in test [9], in test [1], in test [2], in test [3], in [4] and in test [5] was above 100 µM each time. In addition, the TGI in test [6] and in test [7] was above 100 µM each time.
Turning to `N#CC(C(=O)CCC(=O)Nc1cccc(C(F)(F)F)c1)c1ccccc1` (stereo not drawn), the TGI in test [9], in [1], in test [2], in test [3], in test [4] and in [5] was above 100 µM each time. The TGI in [6], in test [7] and in [8] was above 100 µM each time.
On to `Cc1ccc(/C=N/NS(=O)(=O)c2ccccc2)cc1C`, for which the TGI in test [9], in test [1], in [2], in test [3], in test [4] and in test [5] was above 100 µM each time. Moreover, the TGI in [6], in test [7] and in test [8] was above 100 µM each time.
